According to ChEMBL document CHEMBL4052715, “Discovery of novel DAPY-IAS hybrid derivatives as potential HIV-1 inhibitors using molecular hybridization based on crystallographic overlays” (Bioorg Med Chem, 2017):
pEC50: −log10 of the molar value. The source made the active and inactive calls. No cut-off for these calls is given here.

How the values were obtained:
[1] = test system: Human immunodeficiency virus 1; assay: Inhibition of recombinant wild type HIV1 reverse transcriptase assessed as reduction in biotin-dUTP incorporation at 50 uM using poly(A)/oligo(dT)15 as template/primer by ELISA relative to control
[2] = test system: Human immunodeficiency virus 1; assay: Antiviral activity against wild type HIV1 3B infected in human MT4 cells assessed as inhibition of virus-induced cytopathic effect after 5 days by MTT assay; type: functional, cell-based; conditions: Human immunodeficiency virus 1, 3B, MT4, 120 h
[3] = Cytotoxicity against human MT4 cells assessed as reduction in cell viability after 5 days by MTT assay; type: cell-based
[4] = Selectivity index, ratio of CC50 for human MT4 cells to EC50 for wild type HIV1 3B infected in human MT4 cells; type: toxicity, cell-based; conditions: read-out: Ratio CC50/EC50
[5] = test system: Human immunodeficiency virus 1; assay: Antiviral activity against HIV1 RES056 harboring reverse transcriptase K103N/Y181C double mutant infected in human MT4 cells assessed as inhibition of virus-induced cytopathic effect after 5 days by MTT assay; type: functional, cell-based
[6] = test system: Human immunodeficiency virus 2; assay: Antiviral activity against HIV2 ROD harboring reverse transcriptase K103N/Y181C double mutant infected in human MT4 cells assessed as inhibition of virus-induced cytopathic effect after 5 days by MTT assay; type: functional, cell-based; conditions: ISOLATE ROD

| Structure (SMILES) | inhibition [1] | pEC50 [2] | CC50 at 120 h [3] | selectivity ratio [4] | inhibition [5] | inhibition [6] |
| --- | --- | --- | --- | --- | --- | --- |
| Cc1ccnc2c1NC(=O)c1cccnc1N2C1CC1 | 88% |  |  |  |  |  |
| Cc1ccc(S(=O)(=O)Nc2ccnc(Nc3ccc(C#N)cc3)c2)cc1 | 5.7% | 5.83 | 14 µM | 9 | inactive | inactive |
| Cc1cc(C)cc(S(=O)(=O)Nc2ccnc(Nc3ccc(C#N)cc3)c2)c1 |  | < 5.30 | 5.06 µM | < 1 | inactive | inactive |
| N#Cc1ccc(Nc2nccc(NS(=O)(=O)c3ccc(F)cc3)n2)cc1 |  | ≤ 5.04 | 36.6 µM | ≤ 4 | inactive | inactive |
| N#Cc1ccc(Nc2cc(NS(=O)(=O)c3cc(C(F)(F)F)cc(C(F)(F)F)c3)ccn2)cc1 |  | < 4.21 | 62.2 µM | < 1 | inactive | inactive |
| CC(C)c1cc(C(C)C)c(S(=O)(=O)Nc2ccnc(Nc3ccc(C#N)cc3)c2)c(C(C)C)c1 |  | < 4.94 | 11.5 µM | < 1 | inactive | inactive |
| CC(C)c1cc(C(C)C)c(S(=O)(=O)Nc2ccnc(Nc3ccc(C#N)cc3)n2)c(C(C)C)c1 |  | < 4.76 | 17.4 µM | < 1 | inactive | inactive |
| N#Cc1ccc(Nc2cc(NS(=O)(=O)c3ccc4ccccc4c3)ccn2)cc1 |  | < 4.52 | 30 µM | < 1 | inactive | inactive |
| CC(C)(C)c1ccc(S(=O)(=O)Nc2ccnc(Nc3ccc(C#N)cc3)n2)cc1 |  | 5.12 | 30.3 µM | 4 | inactive | inactive |
| Cc1ccc(S(=O)(=O)Nc2ccnc(Nc3ccc(C#N)cc3)n2)cc1 | 41.5% | 5.79 | 130 µM | 80 | inactive | inactive |
| N#Cc1ccc(Nc2cc(NS(=O)(=O)c3ccc(F)cc3)ccn2)cc1 |  | < 5.21 | 6.12 µM | < 1 | inactive | inactive |
| N#Cc1ccc(Nc2nccc(NS(=O)(=O)c3cc(C(F)(F)F)cc(C(F)(F)F)c3)n2)cc1 |  | < 3.94 | 115 µM | < 1 | inactive | inactive |
| Cc1cc(C)cc(S(=O)(=O)c2c(C(N)=O)[nH]c3ccc(Cl)cc23)c1 |  | 8.59 | 11 µM | 4260 |  |  |
| N#Cc1ccc(Nc2nccc(NS(=O)(=O)c3ccc(C(F)(F)F)cc3)n2)cc1 |  | < 4.26 | 54.7 µM | < 1 | inactive | inactive |
| N#Cc1ccc(Nc2nccc(NS(=O)(=O)c3ccc4ccccc4c3)n2)cc1 |  | 4.31 | 77.1 µM | 2 | inactive | inactive |
| N#Cc1ccc(Nc2nccc(NS(=O)(=O)c3ccc(C#N)cc3)n2)cc1 |  | 4.40 | 159 µM | 4 | inactive | inactive |
| Cc1cc(C)cc(S(=O)(=O)Nc2ccnc(Nc3ccc(C#N)cc3)n2)c1 |  | 5.21 | 173 µM | 28 | inactive | inactive |
| N#Cc1ccc(Nc2cc(NS(=O)(=O)c3ccc(C(F)(F)F)cc3)ccn2)cc1 |  | < 4.55 | 28 µM | < 1 | inactive | inactive |
| O=c1[nH]cnc2c1ncn2[C@H]1CC[C@@H](CO)O1 [DIDANOSINE] |  | 4.12 | > 212 µM | > 3 |  |  |
| Cc1cc(C)c(S(=O)(=O)Nc2ccnc(Nc3ccc(C#N)cc3)n2)c(C)c1 |  | < 5.36 | 4.4 µM | < 1 | inactive | inactive |
| Cc1cc(C)c(S(=O)(=O)Nc2ccnc(Nc3ccc(C#N)cc3)c2)c(C)c1 |  | 5.22 | 22.2 µM | 4 | inactive | inactive |
| N#Cc1ccc(Nc2cc(NS(=O)(=O)c3cc(F)cc(F)c3)ccn2)cc1 |  | < 4.54 | 28.6 µM | < 1 | inactive | inactive |
| N#Cc1ccc(Nc2nccc(NS(=O)(=O)c3cc(F)cc(F)c3)n2)cc1 |  | 4.33 | 93.9 µM | 2 | inactive | inactive |
| Nc1ccn([C@@H]2CS[C@H](CO)O2)c(=O)n1 [LAMIVUDINE] |  | 5.60 | > 87.2 µM | > 34 |  |  |
| Cc1cc(C#N)cc(C)c1Oc1nc(Nc2ccc(C#N)cc2)nc(N)c1Br [ETRAVIRINE] | 93.3% | 8.40 | 2.15 µM | 541 |  |  |
| CC(C)(C)c1ccc(S(=O)(=O)Nc2ccnc(Nc3ccc(C#N)cc3)c2)cc1 |  | 5.31 | 29.3 µM | 6 | inactive | inactive |
| N#Cc1ccc(Nc2cc(NS(=O)(=O)c3ccc(C#N)cc3)ccn2)cc1 |  | < 4.03 | 93.4 µM | < 1 | inactive | inactive |
